From patent publication US9889129B2, “Method of modulating ribonucleotide reductase” (Case Western Reserve University, priority 2012, dated 2018)
Read-outs that look alike come from different tables or passages of the source. Values belong to the molecule of their own block, whether it stands above or below them.

Columns and labels:
[1] = system: A549 non-small cell lung cells; pancreatic cells (Panc-1); colon cells (HCT-116); assay: MTT Assay II; type: cell-based
Description: We conducted an MTT assay to measure cell metabolism as a surrogate for cell number using A549, Non-Small Cell Lung cells; pancreatic cells (Panc-1); and colon cells (HCT-116).

[2] = system: ribonucleotide reductase activity; assay: DNA synthesis assay
Description: The IC50 of a drug can be determined by constructing a
dose-response curve and examining the effect of different concentrations of a candidate agent on cell growth and/or ribonucleotide reductase enzyme activity. IC50 values can be calculated for a given compound by determining the concentration needed to inhibit half of the maximum biological response of the compound.

RR = target: T1, RR (Homo sapiens, UniProt P23921); assay: RR inhibition by ligands with anticancer properties (Table 4)
T1 sequence (P23921 1-792): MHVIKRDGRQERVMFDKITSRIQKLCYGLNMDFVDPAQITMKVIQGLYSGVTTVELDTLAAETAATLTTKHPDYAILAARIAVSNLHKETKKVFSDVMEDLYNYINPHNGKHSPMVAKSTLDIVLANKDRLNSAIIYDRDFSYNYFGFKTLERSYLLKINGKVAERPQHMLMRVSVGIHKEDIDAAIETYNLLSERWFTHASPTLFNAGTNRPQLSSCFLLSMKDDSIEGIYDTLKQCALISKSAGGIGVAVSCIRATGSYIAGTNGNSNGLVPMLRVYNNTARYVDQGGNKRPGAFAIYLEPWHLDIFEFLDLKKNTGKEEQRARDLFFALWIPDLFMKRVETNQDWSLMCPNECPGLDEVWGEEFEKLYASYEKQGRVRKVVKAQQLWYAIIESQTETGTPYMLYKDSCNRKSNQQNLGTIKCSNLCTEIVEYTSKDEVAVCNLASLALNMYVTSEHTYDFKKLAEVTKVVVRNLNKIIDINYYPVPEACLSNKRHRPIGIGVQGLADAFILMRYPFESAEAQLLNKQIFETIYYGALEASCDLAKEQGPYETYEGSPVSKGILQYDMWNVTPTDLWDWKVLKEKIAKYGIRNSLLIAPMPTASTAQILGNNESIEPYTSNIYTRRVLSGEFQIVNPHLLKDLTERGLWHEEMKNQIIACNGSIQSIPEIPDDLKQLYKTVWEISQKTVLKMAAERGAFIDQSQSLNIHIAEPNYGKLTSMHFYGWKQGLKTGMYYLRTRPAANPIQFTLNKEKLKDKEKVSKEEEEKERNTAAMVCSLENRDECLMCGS

[3] = system: A549 non-small cell lung cells; 231 triple negative breast cells; LN229; assay: MTT Assay I; type: cell-based; details: continuous doses for three days; for IC50: 72 h, range over A549, 231, LN229; for ACTIVITY: A549, 231, LN229
Method: We conducted an MTT assay to measure cell metabolism as a surrogate for cell number using A549, Non-Small Cell Lung cells; 231, Triple negative breast cells; and LN229. All values are relative to untreated controls, corrected for any MTT absorbance due to media alone.
The cells were treated with continuous doses of the indicated drugs for three days, at which time the MTT assay was run. The control is listed as a dose of 0.1 uM because we plot on a log scale and wish to avoid taking the log of 0 in the calculations.

[4] = system: MDA-MB-231 human breast carcinoma cell line; assay: Growth inhibition studies on MDA-MB-231; type: cell-based
Description: Growth inhibition studies on MDA-MB-231 human breast carcinoma cell line in the presence of gemcitabine (F2CDP-red) or cis-platin (CDDP-blue) alone (solid lines), or in combination with a non-toxic does of compound 2 (dashed lines).
Growth of the MDA-MB-231 cancer cell line is inhibited by compound 3.

[5] = A549, Panc-1, HCT-116, read-out: IC50

IC50 (RR): 5 to 10 µM
Compound: OC(COc1ccc2c(c1)CCC2)CN1CCN(Cc2ccccc2)CC1 (stereo not shown) [Compound 4]

IC50 [1, 5]: 600 to 2000 nM
IC50 (RR): 0.6 to 2 µM
Compound: O=C(CCCCCCCCC(=O)N/N=C/c1c(O)ccc2ccccc12)N/N=C/c1c(O)ccc2ccccc12 [Compound 1]

IC50 (RR): 0.225 µM
Compound: O=C(CC1CCCCC1)N/N=C\c1cccc2cccc(O)c12 [Compound 3]
cytotoxicity / growth inhibition ([4]; single agent): cytotoxic against human breast carcinoma cells

Further lines, the molecule ahead of its results:

Compound: Nc1ccn([C@@H]2O[C@H](CO)[C@@H](O)C2(F)F)c(=O)n1 [Gemcitabien, reference compound]
IC50 ([1]; A549, Panc-1, HCT-116, read-out: IC50s): 100 to 500 nM

Compound: Cc1c2c(c(O)c3c(O)ccc(Cl)c13)C(=O)C1(O)C(=O)C(C(=O)O)=C(O)C(N(C)C)C1C2 (stereo not shown) [Drug 4]
IC50 [2]: 50 to 100 µM

Compound: O=C(CCCCCCCCC(=O)N/N=C/c1c(O)ccc2ccccc12)N/N=C/c1c(O)ccc2ccccc12 [Drug 1]
IC50 [2]: ≤ 1 µM
ACTIVITY ([2]; DNA synthesis assay, exposed for 2 continuous days): most potent
IC50 [3]: 800 to 2000 nM
ACTIVITY [3]: Steady effect on all three cell lines

Compound: OC(COc1ccc(OCC(O)CN2CCN(C3c4ccccc4-c4ccccc43)CC2)cc1)CN1CCN(C2c3ccccc3-c3ccccc32)CC1 (stereo not shown) [Compound 2]
effect on cytotoxicity of gemcitabine or cis-platin ([4]; combination with a non-toxic dose of compound 2): increases cytotoxicity of gemcitabine of cis-platin
IC50 [1, 5]: 3000 to 8000 nM

Compound: CCCCCCCCCCCCC(=O)NCC(=O)NC(CCCCN)C(=O)OC (stereo not shown) [Compound 5]
IC50 (RR): 5 to 10 µM

Compound: OC(COc1ccc(OCC(O)CN2CCN(C3c4ccccc4-c4ccccc43)CC2)cc1)CN1CCN(C2c3ccccc3-c3ccccc32)CC1 (stereo not shown) [Drug 2]
IC50 [3]: 3000 to 12000 nM
ACTIVITY [3]: Shows an extremely dramatic effect.
